Results published in patent US8993304B2, “Chloramphenicol resistance selection in Bacillus licheniformis” (Novozymes A/S, priority 2006, dated 2015).

Legend:
Type in all cases: cell-based, Bacillus licheniformis
control strain = experiment: Growth on reisolation onto LPBSG plates with chloramphenicol; details: LPBSG plates with 10 mikrogram/ml chloramphenicol
Text: (§4) 2 erythromycin sensitive and chloramphenicol sensitive strains were kept as SJ8071 (from donor SJ8039) and SJ8072 (from donor SJ8041).

SJ8071 = experiment: as above; details: SJ8071 deletion strain; LPBSG plates with 10 mikrogram/ml chloramphenicol
Text: as §4

ATCC14580 = experiment: Test of chloramphenicol resistance, growth in liquid TY+glucose culture; details: 30° C.
Experimental: (§1) Strains PP1897-3, SJ8071 (=PP1897-3 delta cat), ATCC14580, and SJ8344 (=ATCC14580 delta cat) were propagated in 10 ml TY (WO 94/14968, p16) supplemented with 0.5% glucose at 30° C. overnight, with shaking. 50 microliter aliquots were used to inoculate further 10 ml TY+glucose cultures, supplemented with chloramphenicol (cam) to concentrations: 1 microgram/ml, 2 microgram/ml, 3 microgram/ml, 6 microgram/ml, 9 microgram/ml, or 12 microtram/ml, and incubation with shaking continued at 30° C. Growth was scored by visual inspection of turbidity after approximately 7 hours (table 1), and again after overnight incubation (table 2).

[1] = system: SJ8071 (=PP1897-3 delta cat); experiment: as above; details: 30° C.
Experimental: as §1

[2] = system: SJ8344 (=ATCC14580 delta cat); experiment: as above; details: 30° C.
Experimental: as §1

PP1897-3 = experiment: as above; details: 30° C.
Experimental: as §1

SJ8072 = experiment: Growth on reisolation onto LPBSG plates with chloramphenicol; details: SJ8072 deletion strain; LPBSG plates with 10 mikrogram/ml chloramphenicol
Text: as §4

[3] = system: recipient strains containing intact, chromosomal chloramphenicol resistance genes; experiment: Transconjugant selection on chloramphenicol plates; details: recipients with intact chromosomal cat (PP1897-3, ATCC14580); donor SJ8000; chloramphenicol 6 microgram/ml; 30° C. overnight
Experimental: (§2) B. licheniformis strains PP1897-3, the cat-deleted derivative SJ8071, strain ATCC14580, and the cat-deleted derivative SJ8344 were used as recipients in conjugations with donor strain SJ8000, essentially as described before.
(§3) For each donor/recipient combination, donor and recipient colonies were scraped off overnight plates and mixed in a small volume of liquid TY medium, and equal volumes from this mixture was plated on each of two LBPGS plates with D-alanine. Following 6 hours incubation at 30° C., one plate was replicaplated onto LBPGS with erythromycin (2 microgram/ml), and the other plate replica plated onto LPPGS with chloramphenicol (6 microgram/ml). These plates were incubated at 30° C. overnight, then left at room temperature (20-25° C.) for further 3 days.

[4] = system: cat-deleted recipient strains; experiment: Transconjugant selection on chloramphenicol plates; details: cat-deleted recipients (SJ8071, SJ8344); donor SJ8000; chloramphenicol 6 microgram/ml; 30° C. overnight
Experimental: as §2, §3

[5] = 1 μg/ml cam, after 7 hours incubation
[6] = 1 μg/ml cam, after overnight incubation
[7] = 2 μg/ml cam, after 7 hours incubation
[8] = 2 μg/ml cam, after overnight incubation
[9] = 3 μg/ml cam, after 7 hours incubation
[10] = 3 μg/ml cam, after overnight incubation
[11] = 6 μg/ml cam, after 7 hours incubation
[12] = 6 μg/ml cam, after overnight incubation
[13] = 9 μg/ml cam, after 7 hours incubation
[14] = 9 μg/ml cam, after overnight incubation
[15] = 12 μg/ml cam, after 7 hours incubation
[16] = 12 μg/ml cam, after overnight incubation

O=C(N[C@H](CO)[C@H](O)c1ccc([N+](=O)[O-])cc1)C(Cl)Cl [cam, chloramphenicol]
No distinct transconjugant colonies: Transconjugant colonies using chloramphenicol selection [3]
++: Growth scored by visual inspection of turbidity (ATCC14580; [5]) | Growth scored by visual inspection of turbidity (ATCC14580; [6]) | Growth scored by visual inspection of turbidity (ATCC14580; [8]) | Growth scored by visual inspection of turbidity (ATCC14580; [10]) | Growth scored by visual inspection of turbidity (ATCC14580; [12]) | Growth scored by visual inspection of turbidity (ATCC14580; [14]) | Growth scored by visual inspection of turbidity [1, 6] | Growth scored by visual inspection of turbidity [1, 8] | Growth scored by visual inspection of turbidity [1, 10] | Growth scored by visual inspection of turbidity [2, 6] | Growth scored by visual inspection of turbidity [2, 8] | Growth scored by visual inspection of turbidity [2, 10] | Growth scored by visual inspection of turbidity (PP1897-3; [5]) | Growth scored by visual inspection of turbidity (PP1897-3; [6]) | Growth scored by visual inspection of turbidity (PP1897-3; [7]) | Growth scored by visual inspection of turbidity (PP1897-3; [8]) | Growth scored by visual inspection of turbidity (PP1897-3; [10]) | Growth scored by visual inspection of turbidity (PP1897-3; [12]) | Growth scored by visual inspection of turbidity (PP1897-3; [14])
−: Growth scored by visual inspection of turbidity (ATCC14580; [11]) | Growth scored by visual inspection of turbidity (ATCC14580; [13]) | Growth scored by visual inspection of turbidity (ATCC14580; [15]) | Growth scored by visual inspection of turbidity [1, 7] | Growth scored by visual inspection of turbidity [1, 9] | Growth scored by visual inspection of turbidity [1, 11] | Growth scored by visual inspection of turbidity [1, 13] | Growth scored by visual inspection of turbidity [1, 15] | Growth scored by visual inspection of turbidity [2, 7] | Growth scored by visual inspection of turbidity [2, 9] | Growth scored by visual inspection of turbidity [2, 11] | Growth scored by visual inspection of turbidity [2, 13] | Growth scored by visual inspection of turbidity [2, 15] | Growth scored by visual inspection of turbidity (PP1897-3; [11]) | Growth scored by visual inspection of turbidity (PP1897-3; [13]) | Growth scored by visual inspection of turbidity (PP1897-3; [15])
absolutely no growth: Growth when reisolated onto plates (SJ8071) | Growth when reisolated onto plates (SJ8072)
some growth: Growth when reisolated onto plates (control strain)
Distinct transconjugant colonies: Transconjugant colonies using chloramphenicol selection [4]
+: Growth scored by visual inspection of turbidity (ATCC14580; [7]) | Growth scored by visual inspection of turbidity (ATCC14580; [9]) | Growth scored by visual inspection of turbidity (ATCC14580; [16]) | Growth scored by visual inspection of turbidity [1, 5] | Growth scored by visual inspection of turbidity [1, 12] | Growth scored by visual inspection of turbidity [1, 14] | Growth scored by visual inspection of turbidity [1, 16] | Growth scored by visual inspection of turbidity [2, 5] | Growth scored by visual inspection of turbidity [2, 12] | Growth scored by visual inspection of turbidity [2, 14] | Growth scored by visual inspection of turbidity [2, 16] | Growth scored by visual inspection of turbidity (PP1897-3; [9]) | Growth scored by visual inspection of turbidity (PP1897-3; [16])
